# Patent US9113629B2, “4-amino-6-(4-substituted-phenyl)-picolinates and 6-amino-2-(4-substituted-phenyl)-pyrimidine-4-carboxylates and their use as herbicides” (DOW AGROSCIENCES LLC, priority 2013, dated 2015)
# Tests used:
# [1] = Post-emergent Test III, herbicidal activity in wheat and barley; type: in vivo, Lolium multiflorum, Lolium rigidum; settings: Lolium multiflorum, post-emergence, 504 h, read-out: Visual Growth Reduction (%) 21 Days After Application LOLSS; for pest or weed control at 35 g/ha: 35 g ai/ha; for pest or weed control at 70 g/ha: 70 g ai/ha; for pest or weed control at 140 g/ha: 140 g ai/ha
# In short: (§1)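 GR20, GR50, GR80 and GR90 come from probit analysis of visual injury scores (0 = none, 100 = complete kill) taken 21 d after treatment. Foliar application was by track sprayer delivering 187 L/ha at five rates, from high down to 1/16×, onto greenhouse plants at the 2–3 leaf stage, with solvent-blank controls.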
# [2] = system: ALOMY: black-grass (Alopecurus myosuroides); assay: as above; type: in vivo; settings: for pest or weed control at 35 g/ha / pest or weed control at 70 g/ha / pest or weed control at 140 g/ha: Alopecurus myosuroides, post-emergence, 504 h, read-out: Visual Growth Reduction (%) 21 Days After Application ALOMY; for pest or weed control at 35 g/ha: 35 g ai/ha; for pest or weed control at 70 g/ha: 70 g ai/ha; for pest or weed control at 140 g/ha: 140 g ai/ha; for GR50 ALOMY / GR80 ALOMY: probit analysis, 21 days after application; for GR50 ALOMY: dose for growth reduction of 50 percent; for GR80 ALOMY: dose for growth reduction of 80 percent
# In short: as §1
# [3] = system: APESV: bentgrass (Apera spica-venti); assay: as above; type: in vivo; settings: for pest or weed control at 35 g/ha / pest or weed control at 70 g/ha / pest or weed control at 140 g/ha: Apera spica-venti, post-emergence, 504 h, read-out: Visual Growth Reduction (%) 21 Days After Application APESV; for pest or weed control at 35 g/ha: 35 g ai/ha; for pest or weed control at 70 g/ha: 70 g ai/ha; for pest or weed control at 140 g/ha: 140 g ai/ha; for GR50 APESV / GR80 APESV: probit analysis, 21 days after application; for GR50 APESV: dose for growth reduction of 50 percent; for GR80 APESV: dose for growth reduction of 80 percent
# In short: as §1
# [4] = system: HORSS: barley, including spring and winter (Hordeum vulgare); assay: as above; type: in vivo; settings: for pest or weed control at 35 g/ha / pest or weed control at 70 g/ha / pest or weed control at 140 g/ha: Hordeum vulgare, post-emergence, 504 h, read-out: Visual Growth Reduction (%) 21 Days After Application HORSS; for pest or weed control at 35 g/ha: 35 g ai/ha; for pest or weed control at 70 g/ha: 70 g ai/ha; for pest or weed control at 140 g/ha: 140 g ai/ha; for GR20 HORSS: probit analysis, dose for growth reduction of 20 percent, 21 days after application, crop
# In short: as §1
# [5] = system: KCHSC: kochia (Kochia scoparia); assay: as above; type: in vivo; settings: for pest or weed control at 35 g/ha / pest or weed control at 70 g/ha / pest or weed control at 140 g/ha: Bassia scoparia, post-emergence, 504 h, read-out: Visual Growth Reduction (%) 21 Days After Application KCHSC; for pest or weed control at 35 g/ha: 35 g ai/ha; for pest or weed control at 70 g/ha: 70 g ai/ha; for pest or weed control at 140 g/ha: 140 g ai/ha; for GR50 KCHSC / GR80 KCHSC: probit analysis, 21 days after application; for GR50 KCHSC: dose for growth reduction of 50 percent; for GR80 KCHSC: dose for growth reduction of 80 percent
# In short: as §1
# LAMSS = assay: as above; type: in vivo; settings: for pest or weed control at 35 g/ha / pest or weed control at 70 g/ha / pest or weed control at 140 g/ha: post-emergence, 504 h, read-out: Visual Growth Reduction (%) 21 Days After Application LAMSS; for pest or weed control at 35 g/ha: 35 g ai/ha; for pest or weed control at 70 g/ha: 70 g ai/ha; for pest or weed control at 140 g/ha: 140 g ai/ha; for GR50 LAMSS / GR80 LAMSS: probit analysis, 21 days after application; for GR50 LAMSS: dose for growth reduction of 50 percent; for GR80 LAMSS: dose for growth reduction of 80 percent
# In short: as §1
# [6] = system: LOLSS: ryegrass including, Italian ryegrass (Lolium multiflorum), rigid ryegrass (Lolium rigidum), annual ryegrass (Lolium multiflorum subsp. Gaudini); assay: as above; type: in vivo; settings: probit analysis, 21 days after application; for GR50 LOLSS: dose for growth reduction of 50 percent; for GR80 LOLSS: dose for growth reduction of 80 percent
# In short: as §1
# [7] = system: MATSS: scented mayweed (Matricaria chamomilla), pineappleweed (Matricaria matricarioides); assay: as above; type: in vivo; settings: for pest or weed control at 35 g/ha / pest or weed control at 70 g/ha / pest or weed control at 140 g/ha: Matricaria chamomilla, post-emergence, 504 h, read-out: Visual Growth Reduction (%) 21 Days After Application MATSS; for pest or weed control at 35 g/ha: 35 g ai/ha; for pest or weed control at 70 g/ha: 70 g ai/ha; for pest or weed control at 140 g/ha: 140 g ai/ha; for GR50 MATSS / GR80 MATSS: probit analysis, 21 days after application; for GR50 MATSS: dose for growth reduction of 50 percent; for GR80 MATSS: dose for growth reduction of 80 percent
# In short: as §1
# [8] = system: SETVI: green foxtail (Setaria viridis); assay: as above; type: in vivo; settings: for pest or weed control at 35 g/ha / pest or weed control at 70 g/ha / pest or weed control at 140 g/ha: Setaria viridis, post-emergence, 504 h, read-out: Visual Growth Reduction (%) 21 Days After Application SETVI; for pest or weed control at 35 g/ha: 35 g ai/ha; for pest or weed control at 70 g/ha: 70 g ai/ha; for pest or weed control at 140 g/ha: 140 g ai/ha; for GR50 SETVI / GR80 SETVI: probit analysis, 21 days after application; for GR50 SETVI: dose for growth reduction of 50 percent; for GR80 SETVI: dose for growth reduction of 80 percent
# In short: as §1
# [9] = system: TRZSS: wheat, including spring and winter (Triticum aestivum); assay: as above; type: in vivo; settings: for pest or weed control at 35 g/ha / pest or weed control at 70 g/ha / pest or weed control at 140 g/ha: Triticum aestivum, post-emergence, 504 h, read-out: Visual Growth Reduction (%) 21 Days After Application TRZSS; for pest or weed control at 35 g/ha: 35 g ai/ha; for pest or weed control at 70 g/ha: 70 g ai/ha; for pest or weed control at 140 g/ha: 140 g ai/ha; for GR20 TRZSS: probit analysis, dose for growth reduction of 20 percent, 21 days after application, crop
# In short: as §1
smiles,measurement,setting,value
"Nc1c(F)c(-c2ccc(I)cc2)nc(C(=O)O)c1Cl [Compound 45, 4-amino-3-chloro-5-fluoro-6-(4-iodophenyl)picolinic acid]",pest or weed control at 35 g/ha,[1],60 to 74%
same,pest or weed control at 70 g/ha,[1],75 to 84%
same,pest or weed control at 140 g/ha,[1],85 to 94%
same,pest or weed control at 35 g/ha,[2],75 to 84%
same,pest or weed control at 70 g/ha,[2],85 to 94%
same,pest or weed control at 140 g/ha,[2],95 to 100%
same,GR50 ALOMY,[2],9 g ai/ha
same,GR80 ALOMY,[2],27 g ai/ha
same,pest or weed control at 35 g/ha,[3],85 to 94%
same,pest or weed control at 70 g/ha,[3],85 to 94%
same,pest or weed control at 140 g/ha,[3],95 to 100%
same,GR50 APESV,[3],8 g ai/ha
same,GR80 APESV,[3],25 g ai/ha
same,pest or weed control at 35 g/ha,[4],85 to 94%
same,pest or weed control at 70 g/ha,[4],85 to 94%
same,pest or weed control at 140 g/ha,[4],95 to 100%
same,GR20 HORSS,[4],1 g ai/ha
same,pest or weed control at 35 g/ha,[5],85 to 94%
same,pest or weed control at 70 g/ha,[5],95 to 100%
same,pest or weed control at 140 g/ha,[5],95 to 100%
same,GR50 KCHSC,[5],2 g ai/ha
same,GR80 KCHSC,[5],9 g ai/ha
same,pest or weed control at 35 g/ha,LAMSS,85 to 94%
same,pest or weed control at 70 g/ha,LAMSS,95 to 100%
same,pest or weed control at 140 g/ha,LAMSS,95 to 100%
same,GR50 LAMSS,LAMSS,1 g ai/ha
same,GR80 LAMSS,LAMSS,6 g ai/ha
same,GR50 LOLSS,[6],20 g ai/ha
same,GR80 LOLSS,[6],69 g ai/ha
same,pest or weed control at 35 g/ha,[7],85 to 94%
same,pest or weed control at 70 g/ha,[7],95 to 100%
same,pest or weed control at 140 g/ha,[7],95 to 100%
same,GR50 MATSS,[7],2 g ai/ha
same,GR80 MATSS,[7],29 g ai/ha
same,pest or weed control at 35 g/ha,[8],60 to 74%
same,pest or weed control at 70 g/ha,[8],85 to 94%
same,pest or weed control at 140 g/ha,[8],95 to 100%
same,GR50 SETVI,[8],18 g ai/ha
same,GR80 SETVI,[8],52 g ai/ha
same,pest or weed control at 35 g/ha,[9],85 to 94%
same,pest or weed control at 70 g/ha,[9],85 to 94%
same,pest or weed control at 140 g/ha,[9],85 to 94%
same,GR20 TRZSS,[9],1 g ai/ha
"COC(=O)c1nc(-c2ccc(Br)c(F)c2F)cc(N)c1Cl [Compound 114, methyl 4-amino-6-(4-bromo-2,3-difluorophenyl)-3-chloropicolinate]",pest or weed control at 35 g/ha,[1],0 to 29%
same,pest or weed control at 70 g/ha,[1],0 to 29%
same,pest or weed control at 140 g/ha,[1],0 to 29%
same,pest or weed control at 35 g/ha,[2],0 to 29%
same,pest or weed control at 70 g/ha,[2],0 to 29%
same,pest or weed control at 140 g/ha,[2],0 to 29%
same,GR50 ALOMY,[2],>140 g ai/ha
same,GR80 ALOMY,[2],>140 g ai/ha
same,pest or weed control at 35 g/ha,[3],0 to 29%
same,pest or weed control at 70 g/ha,[3],0 to 29%
same,pest or weed control at 140 g/ha,[3],0 to 29%
same,GR50 APESV,[3],>140 g ai/ha
same,GR80 APESV,[3],>140 g ai/ha
same,pest or weed control at 35 g/ha,[4],0 to 29%
same,pest or weed control at 70 g/ha,[4],30 to 44%
same,pest or weed control at 140 g/ha,[4],30 to 44%
same,GR20 HORSS,[4],42 g ai/ha
same,pest or weed control at 35 g/ha,[5],60 to 74%
same,pest or weed control at 70 g/ha,[5],60 to 74%
same,pest or weed control at 140 g/ha,[5],75 to 84%
same,GR50 KCHSC,[5],3 g ai/ha
same,GR80 KCHSC,[5],>140 g ai/ha
same,pest or weed control at 35 g/ha,LAMSS,85 to 94%
same,pest or weed control at 70 g/ha,LAMSS,85 to 94%
same,pest or weed control at 140 g/ha,LAMSS,95 to 100%
same,GR50 LAMSS,LAMSS,1 g ai/ha
same,GR80 LAMSS,LAMSS,4 g ai/ha
same,GR50 LOLSS,[6],>140 g ai/ha
same,GR80 LOLSS,[6],>140 g ai/ha
same,pest or weed control at 35 g/ha,[7],0 to 29%
same,pest or weed control at 70 g/ha,[7],0 to 29%
same,pest or weed control at 140 g/ha,[7],0 to 29%
same,GR50 MATSS,[7],>140 g ai/ha
same,GR80 MATSS,[7],>140 g ai/ha
same,pest or weed control at 35 g/ha,[8],0 to 29%
same,pest or weed control at 70 g/ha,[8],0 to 29%
same,pest or weed control at 140 g/ha,[8],0 to 29%
same,GR50 SETVI,[8],>140 g ai/ha
same,GR80 SETVI,[8],>140 g ai/ha
same,pest or weed control at 35 g/ha,[9],30 to 44%
same,pest or weed control at 70 g/ha,[9],45 to 59%
same,pest or weed control at 140 g/ha,[9],45 to 59%
same,GR20 TRZSS,[9],16 g ai/ha
